Source: patent US20160075695A1, “BENZIMIDAZOLE DERIVATIVES AS BROMODOMAIN INHIBITORS” (Gilead Sciences, Inc., priority 2013, published 2016)
Like-named read-outs stand apart in the source and are kept apart here.

Columns and labels:
BRD4-1 [1] = target: T1, BRD4-1 (Homo sapiens, UniProt O60885); experiment: HTRF (TR-FRET) assay, BRD4-1 binding to acetylated histone H4 peptide
T1 construct: made in house; host or cells: Escherichia coli
Protocol: (§1) Binding of the two tandem bromodomains, BRD4-1 and BRD4-2, to an acetylated histone H4 peptide was measured using a homogeneous time resolved fluorescence resonance energy transfer (TR-FRET) assay. […] BRD4-1 and BRD4-2 were expressed and purified from Escherichia coli as N-terminal His6-tagged proteins. An XL665 labeled anti-His antibody (Cisbio) was used to specifically bind BRD4 and a cryptate labeled streptavidin protein was used because it specifically recognized the biotinylated H4 peptide. […] After an assay reaction time of 60 minutes at 25° C., binding was measured with 2 nM crytptate labeled streptavidin and 10 nM anti-His-XL665 antibody. TR-FRET signal was detected on an Envision plate reader (Ex: 320 nm; Em: 615/665 nm; 100 us delay and 200 μs read window). […] All IC50 values represent geometric mean values of a minimum of four determinations.

BRD4-2 = target: T2, BRD4-2 (Homo sapiens, UniProt O60885); experiment: HTRF (TR-FRET) assay, BRD4-2 binding to acetylated histone H4 peptide
T2 construct: made in house; host or cells: Escherichia coli
Protocol: as §1

BRD4-1 [2] = target: T1, BRD4-1; experiment: Alpha assay, BRD4-1 binding to acetylated histone H4 peptide
Protocol: Binding of the bromodomain BRD4-I to an acetylated histone H4 peptide was measured using a bead-based Amplified Luminescent Proximity Homogeneous Assay (ALPHA). […] BRD4-I was expressed and purified from Escherichia coli as an N-terminal His6-tagged protein. Nickel-Chelate ALPHA acceptor beads (Perkin Elmer) were used to specifically bind BRD4-1 and ALPHA streptavidin donor beads (Perkin Elmer) were used because they specifically recognized the biotinylated H4 peptide. […] Assays were performed in 50 mM Hepes (pH 7.5), 150 mM NaCl, 0.1 mg/ml BSA, 0.01% (v/v) Brij, 0.5% (v/v) DMSO, 200 nM H4 peptide and 15 nM of BRD4-1 protein. After an assay reaction time of 60 minutes at 25° C., binding was measured with 20 μg/ml streptavidin donor beads and 20 μg/ml nickle-chelate acceptor beads. ALPHA signal was detected on an Envision plate reader (Ex: 320 nm; Em: 570 nm; Ex time: 180 ms). […] All IC50 values represent geometric mean values of a minimum of four determinations.

[3] = 60 nM BRD4-1, 200 nM H4 peptide, 60 minutes at 25° C., geometric mean of a minimum of four determinations, read-out: HTRF BRD4-1 (IC50)
[4] = 120 nM BRD4-2, 200 nM H4 peptide, 60 minutes at 25° C., geometric mean of a minimum of four determinations, read-out: HTRF BRD4-2 (IC50)
[5] = 15 nM BRD4-1, 200 nM H4 peptide, 60 minutes at 25° C., geometric mean of a minimum of four determinations, read-out: Alpha Assay (IC50)

Structure (SMILES)	IC50 (BRD4-1 [1]; [3]) [nM]	IC50 (BRD4-2; [4]) [nM]	IC50 (BRD4-1 [2]; [5]) [nM]	IC50 (BRD4-1 [1]) [nM]	IC50 (BRD4-2) [nM]	IC50 (BRD4-1 [2]) [nM]
Cc1noc(C)c1-c1cc(N2C(=O)CCC2C)c2nc(C3CC3)[nH]c2c1 (stereo not shown) [Compound 1020-136, 1-(2-Cyclopropyl-6-(3,5-dimethylisoxazol-4-yl)-1H-benzo[d]imidazol-4-yl)-5-methylpyrrolidin-2-one]	823	727	513			
Cc1cnn(C)c1-c1cc(-c2c(C)noc2C)cc2nc(C3CC3)[nH]c12 [Compound 1020-12, 4-(2-Cyclopropyl-7-(1,4-dimethyl-1H-pyrazol-5-yl)-1H-benzo[d]imidazol-5-yl)-3,5-dimethylisoxazole]	138	69.2	46.2			
CSc1nc2c(S(=O)(=O)NC3CCCC3)cc(-c3c(C)noc3C)cc2[nH]1 [Compound 1020-4, N-Cyclopentyl-6-(3,5-dimethylisoxazol-4-yl)-2-(methylthio)-1H-benzo[d]imidazole-4-sulfonamide]	337	230				
Cc1ccc2ncccc2c1-c1cc(-c2c(C)noc2C)cc2[nH]c(C(O)CCO)nc12 (stereo not shown) [Compound 1020-89, 1-(6-(3,5-dimethylisoxazol-4-yl)-4-(6-methylquinolin-5-yl)-1H-benzo[d]imidazol-2-yl)propane-1,3-diol]	379	151	130			
Cc1n[nH]c(C)c1-c1cc(-c2c(C)noc2C)cc2nc(N)[nH]c12 [Compound 1020-96, 4-(3,5-Dimethyl-1H-pyrazol-4-yl)-6-(3,5-dimethylisoxazol-4-yl)-1H-benzo[d]imidazol-2-amine]	276	96.9	53.7			
Cc1noc(C)c1-c1cc(S(=O)(=O)NC2CCCC2)c2nc(NCC(F)(F)F)[nH]c2c1 [Compound 1020-148, N-Cyclopentyl-6-(3,5-dimethylisoxazol-4-yl)-2-(2,2,2-trifluoroethylamino)-1H-benzo[d]imidazole-4-sulfonamide]	186	180				
Cc1ccc2ncccc2c1-c1cc(-c2c(C)noc2C)cc2[nH]c(-c3cnn(C)c3)nc12 [Compound 1020-88, 3,5-Dimethyl-4-(2-(1-methyl-1H-pyrazol-4-yl)-4-(6-methylquinolin-5-yl)-1H-benzo[d]imidazol-6-yl)isoxazole]	104	131	15.9			
Cc1noc(C)c1-c1cc(S(=O)(=O)NC2CCCC2)c2nc(NCC3CC3)[nH]c2c1 [Compound 1020-1, N-Cyclopentyl-2-(cyclopropylmethylamino)-6-(3,5-dimethylisoxazol-4-yl)-1H-benzo[d]imidazole-4-sulfonamide]	201	97.6				
Cc1n[nH]c(C)c1-c1cc(-c2c(C)noc2C)cc2nc(C3CC3)n(C)c12 [Compound 1020-72, 4-(2-cyclopropyl-7-(3,5-dimethyl-1H-pyrazol-4-yl)-1-methyl-1H-benzo[d]imidazol-5-yl)-3,5-dimethylisoxazole]	101	69.1	12.3			
Cc1n[nH]c(C)c1-c1cc(-c2c(C)noc2C)cc2[nH]c(NCC3CC3)nc12 [Compound 1020-79, N-(Cyclopropylmethyl)-4-(3,5-dimethyl-1H-pyrazol-4-yl)-6-(3,5-dimethylisoxazol-4-yl)-1H-benzo[d]imidazol-2-amine]	161	87.2	33.6			
CCC(CC)c1cc(-c2c(C)noc2C)cc2[nH]c(C3CC3)nc12 [Compound 1020-120, 4-(2-Cyclopropyl-4-(pentan-3-yl)-1H-benzo[d]imidazol-6-yl)-3,5-dimethylisoxazole]				88.5	76.1	39.7
Cc1noc(C)c1-c1cc(NC2CCCC2)c2nc(C3CC3)[nH]c2c1 [Compound 1020-50, N-Cyclopentyl-2-cyclopropyl-6-(3,5-dimethylisoxazol-4-yl)-1H-benzo[d]imidazol-4-amine]	299	318	125			
Cc1noc(C)c1-c1cc(S(=O)(=O)NC2CCCC2)c2nc(Cc3ccccc3)[nH]c2c1 [Compound 1020-141, 2-Benzyl-N-cyclopentyl-6-(3,5-dimethylisoxazol-4-yl)-1H-benzo[d]imidazole-4-sulfonamide]	704	111				
Cc1noc(C)c1-c1cc(C(O)(c2ccccc2)c2ccccc2)c2nc(C3CC3)[nH]c2c1 [Compound 1020-102, (2-Cyclopropyl-6-(3,5-dimethylisoxazol-4-yl)-1H-benzo[d]imidazol-4-yl)diphenylmethanol]	101	75.7	14.3			
CCC1CCC(=O)N1c1cc(-c2c(C)noc2C)cc2[nH]c(C3CC3)nc12 (stereo not shown) [Compound 1020-137, 1-(2-Cyclopropyl-6-(3,5-dimethylisoxazol-4-yl)-1H-benzo[d]imidazol-4-yl)-5-ethylpyrrolidin-2-one]	187	399	52.8			
Cc1ccc2ncccc2c1-c1cc(-c2c(C)noc2C)cc2nc(C3CC3)n(C)c12 [Compound 1020-74, 4-(2-Cyclopropyl-1-methyl-7-(6-methylquinolin-5-yl)-1H-benzo[d]imidazol-5-yl)-3,5-dimethylisoxazole]	97.1	112	18.9			
CCC(O)(CC)c1cc(-c2c(C)noc2C)cc2c1nc(C1CC1)n2C [Compound 1020-132, 3-(2-Cyclopropyl-6-(3,5-dimethylisoxazol-4-yl)-1-methyl-1H-benzo[d]imidazol-4-yl)pentan-3-ol]	610	883	573			
Cc1n[nH]c(C)c1-c1cc(-c2c(C)noc2C)cc2[nH]c(NC3CC3)nc12 [Compound 1020-81, N-Cyclopropyl-4-(3,5-dimethyl-1H-pyrazol-4-yl)-6-(3,5-dimethylisoxazol-4-yl)-1H-benzo[d]imidazol-2-amine]	169	119	50.7			
Cc1ccnc(C)c1-c1cc(-c2c(C)noc2C)cc2nc(C3CC3)[nH]c12 [Compound 1020-57, 4-(2-Cyclopropyl-7-(2,4-dimethylpyridin-3-yl)-1H-benzo[d]imidazol-5-yl)-3,5-dimethylisoxazole]	109	54.4	22.6			
Cc1noc(C)c1-c1cc(S(=O)(=O)NC2CCCC2)c2nc([S+](C)[O-])[nH]c2c1 (stereo not shown) [Compound 1020-5, N-Cyclopentyl-6-(3,5-dimethylisoxazol-4-yl)-2-(methylsulfinyl)-1H-benzo[d]imidazole-4-sulfonamide]	616	357				
COc1nc2c(-c3c(C)ccc4ncccc34)cc(-c3c(C)noc3C)cc2[nH]1 [Compound 1020-90, 4-(2-methoxy-4-(6-methylquinolin-5-yl)-1H-benzo[d]imidazol-6-yl)-3,5-dimethylisoxazole]	110	121	29.9			
Cc1ccnc(C)c1-c1cc(-c2c(C)noc2C)cc2[nH]cnc12 [Compound 1020-84, 4-(4-(2,4-Dimethylpyridin-3-yl)-1H-benzo[d]imidazol-6-yl)-3,5-dimethylisoxazole]	481	234	277			
Cc1noc(C)c1-c1cc(C(O)C2CCCC2)c2nc(C3CC3)[nH]c2c1 (stereo not shown) [Compound 1020-121, Cyclopentyl(2-cyclopropyl-6-(3,5-dimethylisoxazol-4-yl)-1H-benzo[d]imidazol-4-yl)methanol]	95.2	80.8	24.7			
Cc1noc(C)c1-c1cc(-c2cccnc2-c2ccccc2)c2nc(C3CC3)[nH]c2c1 [Compound 1020-19, 4-(2-Cyclopropyl-4-(2-phenylpyridin-3-yl)-1H-benzo[d]imidazol-6-yl)-3,5-dimethylisoxazole]	134	172	28			
Cc1ccc2ncccc2c1-c1cc(-c2c(C)noc2C)cc2[nH]c(C(F)(F)F)nc12 [Compound 1020-92, 3,5-Dimethyl-4-(4-(6-methylquinolin-5-yl)-2-(trifluoromethyl)-1H-benzo[d]imidazol-6-yl)isoxazole]	133	102	37.7			
Cc1noc(C)c1-c1cc(C(C)c2ccc(F)cc2)c2[nH]c(C3CC3)nc2c1 (stereo not shown) [Compound 1020-44, 4-(2-Cyclopropyl-4-(1-(4-fluorophenyl)ethyl)-1H-benzo[d]imidazol-6-yl)-3,5-dimethylisoxazole]	139	111	22			
